The source of these data is US7589169B2, “Compositions for treatment with glucagon-like peptide, and methods of making and using the same” (Pharmain Corporation, priority 2002, dated 2009).

In the assay the test system is rat pancreatic ductal cell line ARIP. Put plainly: Trans-differentiation of ARIP ductal cells, RT-PCR of beta-cell specific genes. Conditions: ARIP cells cultured with GLP-1, RT-PCR. In kind it is cell-based. As to the method:
Based on previous studies, insulin mRNA should be detectable after 48 h, GLUT-2 after 24 h and glucokinase mRNA at 72 h. […] RT-PCR for β-actin will be used as a control for cDNA loading.

For the substance glucagon-like peptide 1 [GLP-1], the “time after which GLUT-2 mRNA should be detectable” value was determined as 24 h, the “time after which insulin mRNA should be detectable” value was 48 h and the “time at which glucokinase mRNA should be detectable” value worked out at 72 h.
